Measurements published in article PMC6874530, “Structural analysis identifies an escape route from the adverse lipogenic effects of liver X receptor ligands” (Communications Biology, 2019).
Like-named read-outs stand apart in the source and are kept apart here.

What was measured:
[1] = test system: Abca1 mRNA in intestine; assay: intestinal Abca1 mRNA induction in C57BL/6 mice (Emax model); type: in vivo, mouse; conditions: for ED50: Mus musculus
Procedure: All procedures involving animals were conducted in accordance with accepted standards of good animal practice and approved by the respective local animal ethics committees (Gothenburg region Local Ethics Review Committee on Animal experiments and University of Virginia Animal Care and Use Committee). Male C57BL/6JOlaHsd mice were retrieved from Harlan Laboratories (Horst, The Netherlands) around 7 weeks of age. In the studies with BMS-852907, male 8-week C57BL/6J mice (Jackson Laboratories) were used. Mice were given ad libitum access to water and standard rodent chow during the studies.
Solid compounds were solubilized in PEG400/Ethanol/Solutol/Water solution (36.3/9.1/4.6/50%). Compounds were given daily by oral gavage, 5 ml kg^−1, at doses ranging from 0.1 to 100 μmol kg^−1 of body weight for 4 days. Animals were terminated 3 h after the last dose.
(§1) At termination, the whole-blood volume was drawn from isoflurane-anesthetized mice via an incision in the carotid artery into EDTA blood tubes (S-Monovette®, EDTA KE/1.3 mL, Sarstedt, Nümbrecht, Germany or BD Microtainers®, Benton, Dickinson and Company, Franklin Lakes, New Jersey, USA). Blood samples were placed on ice and centrifuged within an hour (15 min, 2500 × g, 4 °C or 5 min, 16000 × g, 4 °C). The plasma was then dispensed in separate tubes and kept at −80 °C for later analysis of compound concentration and TG levels. For the analysis of intestinal Abca1 transcript levels, a 3–5-mm long segment of the duodenum was excised and cleared from any gut contents. Tissues were instantly snap frozen in liquid nitrogen and stored at −80 °C.
Snap-frozen intestinal tissues were quickly disrupted in QIAzol® (Qiagen, Hilden, Germany) or PureZOL™ (Bio-Rad Laboratories, Hercules, California, USA) by using a bead tissue homogenizer. Lysates were mixed with chloroform and centrifuged at 6000 × g for 15 min at 4 °C. Total RNA was purified from the upper aqueous phase on the ABI PRISM™ 6100 Nucleic Acid PrepStation (Applied Biosystems, Foster City, USA) or by using the RNeasy kit® (QIAGEN Sciences Inc., Germantown, Maryland, USA) including on-column DNase treatment by using the respective manufacturer’s protocol and reagents. Concentration of total RNA was determined on a NanoDrop™ ND-100 Spectrophotometer (Saveen Werner, Lögstrup, Sweden). The RNA templates were transferred to cDNA by reverse transcription by using the High-Capacity cDNA Reverse Transcription Kit (Applied Biosystems, Foster City, USA) according to the manufacturer’s protocol. Mouse ATP-binding cassette subfamily A member 1 (Abca1) was analyzed by using the forward primer 5′-[…]-3′, reverse primer 5′-[…]-3′, and the dual-labeled probe 5′-6FAM-[…]-TAMRA-3′. Mouse ribosomal protein large P0 (Rplp0, 36b4) was analyzed by using the forward primer 5′-[…]-3′, reverse primer 5′-[…]-3′, and the FAM-labeled probe 5′-[…]-TAMRA-3′. In the study with BMS-852907, RT-qPCR reactions were carried out in separate triplicate wells for Abca1 and Rplp0, respectively, by using 20 ng of cDNA template, 385 nM of the above-mentioned primers, and iQ™ SYBR Green Supermix (Bio-Rad, Hercules, California, USA) on a Bio-Rad MyiQ instrument (Bio-Rad, Hercules, California, USA). In the other studies, 400 nM Abca1 forward and reverse primers, 200 nM Abca1 probe, 200 nM Rplp0 forward and reverse primers, and 100 nM Rplp0 probe were mixed with 15 ng of cDNA template and TaqMan™ Gene Expression Master Mix (Applied Biosystems, Foster City, USA). The RT-qPCR reactions were performed on a 7500 Real-time PCR system (Applied Biosystems, Foster City, USA). Cycle threshold values (Ct) were retrieved from the instrument software. Relative changes in mRNA expression were calculated by using the comparative cycle method (2^−ΔΔCt). […]

[2] = test system: plasma triglycerides; assay: plasma TG induction in C57BL/6 mice vs plasma compound concentration (log-linear model); type: in vivo, mouse; conditions: for TG induction in plasma m (scaling factor) / TG induction in plasma C2, drug concentration corresponding to a twofold increase in TG levels: (% RSE); for TG induction in plasma Attributed class: mouse, in vivo
Procedure: Male C57BL/6JOlaHsd mice were retrieved from Harlan Laboratories (Horst, The Netherlands) around 7 weeks of age. […] Mice were given ad libitum access to water and standard rodent chow during the studies.
Compounds were given daily by oral gavage, 5 ml kg^−1, at doses ranging from 0.1 to 100 μmol kg^−1 of body weight for 4 days. Animals were terminated 3 h after the last dose.
as §1
Plasma triglyceride levels were analyzed by using the Triglycerides/Glycerol Blanked reagent kit (Roche Diagnostics GMBH, Mannheim, Germany). Samples were measured on an ABX Pentra 400 instrument (Horiba Medical, Irvine, California, USA) or Cobas Mira plus instrument (Roche Diagnostics Corporation, Indianapolis, USA). […] Absorbance was measured by using a Tecan Infinite M200 plate reader (Tecan Austria GmbH, Salzburg, Austria).
About 25 µL of plasma was precipitated with 150 µL of cold acetonitrile containing 0.2% formic acid. […] Sample analysis was performed by using a reversed-phase high-pressure liquid chromatography system coupled to a Quattro Ultima triple-quadrupole mass spectrometer (Waters, UK). A rapid 2-min 4–90% (vol/vol) acetonitrile (containing 0.2% formic acid) gradient was used for chromatographic separation.
To rank the compounds, the drug concentration (C2) needed to generate a twofold increase in plasma TG was estimated by rearranging Eq. (2):3 C2=exp^2fold−BL−1/m^1/γ

[3] = test system: plasma triglycerides; set-up: method as in van der Hoorn et al. 2011; conditions: AZ876 high dose 20 µmol·kg−1·day−1, GW3965 at a similar dose; ref van der Hoorn et al. 2011; cited from earlier work
[4] = po, read-out: Abca1 mRNA induction in intestine Attributed class
[5] = oral gavage daily for 4 days, C57BL/6 mice, (% RSE), read-out: Abca1 mRNA induction in intestine ED50

Row | SMILES | ED50 [1, 4] [µmol/kg] | ED50 [1, 5] [µmol/kg] | TG induction in plasma m (scaling factor) [2] | TG induction in plasma Attributed class [2] | TG induction in plasma C2, drug concentration corresponding to a twofold increase in TG levels [2] | increase of plasma triglyceride levels [3] [%] | class of intestinal Abca1 induction [1]
1 | CC(C)(C)N1C(=O)C(Nc2ccc(N3CCCCC3)cc2)=C(c2ccccc2)S1(=O)=O [AZ876] | ≤ 11.3 | 0.956 | 3.44 (49) | Lipogenic | 0.269 (93) μM | 110 | 
2 | O=C(O)Cc1ccc(COc2cccc(-c3c(Cc4ccccc4)cnc4c(C(F)(F)F)cccc34)c2)cc1 [WAY-254011, reference compound] | ≤ 11.3 | < 30 | 1.94 (4) | Lipogenic | 0.794 (8) μM |  | high ABCA1
